This note sets out measurements from patent US20100221197A1, “ANTIMICROBIAL AGENT AND EXTERNAL PREPARATION FOR SKIN CONTAINING THE SAME” (TAIYO CORPORATION, priority 2007, published 2010).

For experiment [1], the system named is S. mutans(JCM5175). Nature of the experiment: Antimicrobial test, growth inhibition minimum concentration. The class given is cell-based, Streptococcus mutans. Particulars: for minimum inhibitory concentration: Table 2. Here is the method: (§1) 0.5 mL of a previously sterilized medium (brand name: Brain Heart Infusion Liquid Medium supplied by Nihon Pharmaceutical Co., Ltd.) was added into a 96-well deep type microplate, and 0.5 mL of ricinoleic acid monoglyceride or diglycerine ricinoleic acid monoester of the present invention (synthesized in “1. Synthesis Example of ricinoleic acid monoglyceride” and “2. Synthesis Example of diglycerine ricinoleic acid monoester,” respectively) was added thereto and serially prepared so that the final concentration in the medium was 3 ppm, 6 ppm, 12 ppm, 25 ppm, 50 ppm, 100 ppm, 200 ppm and 400 ppm. 0.1 mL of each cultured bacterial medium of Corynebacterium xerosis (JCM 1971) or Staphylococcus aureus (JCM 2151) at approximately 1×10^8CFU/mL was added to this sample solution, stirred, and then cultured at 37° C. under an aerobic condition for 24 hours. The antimicrobial effect was visually determined, and compared with test plots in which the microorganism had not been added. The test plot in which no turbidity due to growth of the microorganism was observed was determined as the test plot having the antimicrobial effect, and the lowest concentration required for inhibiting the growth of the microorganism (hereinafter referred to as a “growth inhibition minimum concentration”) was measured. As a Comparative Example, the growth inhibition minimum concentration of 4-isopropyl-3-methylphenol known as the antimicrobial agent having a broad antimicrobial spectrum was measured in the same way as in the above. The growth inhibition minimum concentrations of ricinoleic acid monoglyceride and diglycerine ricinoleic acid monoester of the present invention (synthesized in “1. Synthesis Example of ricinoleic acid monoglyceride” and “2. Synthesis Example of diglycerine ricinoleic acid monoester,” respectively) for the 9 indicator bacterial species shown in Table 2 were measured in the same way as in “3. Antimicrobial test” described above.

Experiment [2] relates to Staphylococcus aureus (JCM 2151). Described as above. It counts as cell-based. Particulars: S. aureus(JCM2151); for MIC: Staphylococcus aureus, read-out: minimum inhibitory concentration. Here is the method:
as §1

For experiment [3], the system named is Corynebacterium xerosis (JCM 1971). The experiment is described as above. It counts as cell-based. The following applies: C. xerosis(JCM1971). Here is the method: as §1
The test system of experiment [4] is E. coli(JCM1649). The experiment is described as above. The class given is cell-based, Escherichia coli. The method, then:
as §1

Experiment [5] concerns B. subtile(JCM2151). The experiment is described as above. It counts as cell-based, Bacillus subtilis. Particulars: Table 2. Here is the method:
as §1

In experiment [6] the test system is S. epidermidis(JCM2414). The experiment is described as above. It counts as cell-based, Staphylococcus epidemidis. The following applies: for minimum inhibitory concentration: Table 2. Here is the method:
as §1

Experiment [7] deals with B. cereus(JCM2152). The experiment is described as above. It counts as cell-based, Bacillus cereus. The following applies: for minimum inhibitory concentration: Table 2. The method, then: as §1
Experiment [8] relates to L. monocytogenes(JCM7671). The experiment is described as above. The class given is cell-based, Listeria monocytogenes. Particulars: for minimum inhibitory concentration: Table 2. The method, then:
as §1

Experiment [9] concerns P. gingivalis(JCM8525). Described as above. The following applies: Table 2. The class given is cell-based, Porphyromonas gingivalis. The method, then: as §1
Experiment [10] concerns Propionibacterium acnes (JCM 6425). In words: Microbicidal test for Propionibacterium acnes. The class given is cell-based. Particulars: FIG. 2. Here is the method:
Ricinoleic acid monoglyceride synthesized in “1. Synthesis Example of ricinoleic acid monoglyceride” was added to a 0.2 M phosphate buffer (pH7.0) to prepare a 200 ppm sample. 0.1 mL of Propionibacterium acnes (JCM 6425) at approximately 1×10^8CFU/mL was added to 5 mL of the sample. While being kept under the anaerobic condition, the bacterial sample was taken at 0, 5, 10, 30, 60 and 120 minutes after the addition, and the number of survival bacteria in the sample was counted at each retention time. Specifically, using a GAM agar medium, the sample was serially diluted, cultured using the flat plate smear method at 37° C. under the anaerobic condition for 4 days, and then the number of bacteria was counted. As the comparative control, 4-isopropyl-3-methylphenol was simultaneously evaluated in the same way as in the above.

Experiment [11] deals with Staphylococcus aureus (JCM 2151). Nature of the experiment: Microbicidal test for Staphylococcus aureus. It counts as cell-based. Particulars: FIG. 1. The method, then: Ricinoleic acid monoglyceride synthesized in “1. Synthesis Example of ricinoleic acid monoglyceride” was added to a 0.2 M phosphate buffer (pH7.0) to prepare a 200 ppm sample. 0.1 mL of Staphylococcus aureus (JCM 2151) at approximately 1×10^8CFU/mL was added to 5 mL of the sample. While being kept under the aerobic condition, the bacterial sample was taken at 0, 5, 10, 30, 60 and 120 minutes after the addition, and the number of survival bacteria in the sample was counted at each retention time. Specifically, using a Brain Heart Infusion agar medium, the sample was serially diluted, cultured using a flat plate smear method at 37° C. for 48 hours, and then the number of bacteria was counted. As a comparative control, 4-isopropyl-3-methylphenol was simultaneously evaluated in the same way as in the above.

Experiment [12] deals with Propionibacterium acnes (JCM 6425). In words: Antimicrobial test, growth inhibition minimum concentration (anaerobic). It counts as cell-based. Particulars: Table 1, P. acnes(JCM6425), 37° C., 48 hours. Here is the method:
0.5 mL of the previously sterilized medium (brand name: Brain Heart Infusion Liquid Medium supplied by Nihon Pharmaceutical Co., Ltd.) was added to a 96-well deep type microplate, and 0.5 mL of ricinoleic acid monoglyceride or diglycerine ricinoleic acid monoester of the present invention (synthesized in “1. Synthesis Example of ricinoleic acid monoglyceride” and “2. Synthesis Example of diglycerine ricinoleic acid monoester,” respectively) was added thereto and serially prepared so that the final concentration in the medium was 3 ppm, 6 ppm, 12 ppm, 25 ppm, 50 ppm, 100 ppm, 200 ppm and 400 ppm. 0.1 mL of a cultured bacterial medium of Propionibacterium acnes (JCM 6425) at approximately 1×10^8CFU/mL was added to this sample solution, and cultured at 37° C. under an anaerobic condition using a deoxidizer for 48 hours. The antimicrobial effect was visually determined, and the growth inhibition minimum concentration was measured. As a Comparative Example, the growth inhibition minimum concentration of 4-isopropyl-3-methylphenol known as the antimicrobial agent having a broad antimicrobial spectrum was measured in the same way as in the above.

Setting [13] is: Table 1, 37° C., aerobic, 24 hours.

The structures appear in SMILES notation. In brackets after ≈: the same amount, converted by molar mass. Like-named read-outs stand apart in the source and are kept apart here. A value given as a limit tells only on which side of the number the result lay.

Turning to `CCCCCCCCCCCCCC(=O)OCC(O)COCC(O)CO` (stereo not drawn) [diglycerin myristic acid monoester], the minimum inhibitory concentration is 50 ppm in [1]; 50 ppm in experiment [2] (Table 2); 100 ppm in [3] (Table 2); greater than 400 ppm in experiment [4] (Table 2, E. coli(JCM1649)); 25 ppm in [5]; greater than 400 ppm in experiment [6].
As to `CCCCCCCCCCCC(=O)OCC(O)CO` (stereo not drawn) [lauric acid monoglyceride], the minimum inhibitory concentration in experiment [7] is listed as 25 ppm; in experiment [1], 25 ppm; in experiment [2] (Table 2), 50 ppm; in experiment [3] (Table 2) it was 100 ppm; in experiment [4] (Table 2, E. coli(JCM1649)), greater than 400 ppm; in experiment [8], 25 ppm. The values for the minimum inhibitory concentration in experiment [5], in experiment [6] and in experiment [9] were 25 ppm, 25 ppm and 13 ppm, respectively.
For the compound `Cc1cc(O)ccc1C(C)C` [4-isopropyl-3-methyl phenol, 4-isopropyl-3-methylphenol], the MIC in experiment [7] (Bacillus cereus, Table 2, read-out: minimum inhibitory concentration) stood at 200 µg/mL (≈ 1330 µM); in [1] (Streptococcus mutans, Table 2, read-out: minimum inhibitory concentration), 200 µg/mL (≈ 1330 µM); in experiment [2] (setting [13]), 200 µg/mL (≈ 1330 µM); in experiment [2] (Table 2), 200 µg/mL (≈ 1330 µM); in [3] (Corynebacterium xerosis, Table 1, 37° C., aerobic, 24 hours, read-out: minimum inhibitory concentration) it was 200 µg/mL (≈ 1330 µM); in [4] (Escherichia coli, Table 2, E. coli(JCM1649), read-out: minimum inhibitory concentration), 400 µg/mL (≈ 2660 µM). The MIC is 200 µg/mL (≈ 1330 µM) in experiment [8] (Listeria monocytogenes, Table 2, read-out: minimum inhibitory concentration); 200 µg/mL (≈ 1330 µM) in [6] (Staphylococcus epidermidis, Table 2, read-out: minimum inhibitory concentration); 200 µg/mL (≈ 1330 µM) in experiment [12] (Cutibacterium acnes, read-out: minimum inhibitory concentration). In experiment [10] (200 ppm sample in 0.2 M phosphate buffer (pH7.0), anaerobic), the “retention time for reducing the number of bacteria to 1/100 or less” value was 10 min. The “microbicidal action for 5 minutes” value in experiment [10] (200 ppm, retention time 5 minutes) is “weak”. Moreover, in [11] (200 ppm sample in 0.2 M phosphate buffer (pH7.0), aerobic), the “retention time for reducing the number of bacteria to 1/1000 or less” value turned out to be 30 min. For the same compound, the “microbicidal action for 10 minutes” value in [11] (200 ppm, retention time 10 minutes) is recorded as “weak”.
With `CCCCCCC(O)CC=CCCCCCCCC(=O)OCC(O)COCC(O)CO` (stereo not drawn) [diglycerin ricinoleic acid monoester, diglycerine ricinoleic acid monoester], the minimum inhibitory concentration worked out at 50 ppm in [7]; 50 ppm in experiment [1]; 50 ppm in [2] (setting [13]); 50 ppm in experiment [2] (Table 2); 50 ppm in experiment [3] (setting [13]); 25 ppm in experiment [3] (Table 2). In addition, the minimum inhibitory concentration is on record as greater than 400 ppm in [4] (Table 2, E. coli(JCM1649)); 50 ppm in experiment [8]; 50 ppm in [5]; 50 ppm in experiment [6]; 100 ppm in experiment [12]. The “antimicrobial activity against Escherichia coli” value in experiment [4] (statement in words from Table 2) was “did not exhibit antimicrobial activity”.
For `CCCCCCCCCCCCCC(=O)OCC(O)CO` (stereo not drawn) [myristic acid monoglyceride], the minimum inhibitory concentration is on record as 400 ppm in experiment [7]; 100 ppm in experiment [1]; 400 ppm in experiment [2] (Table 2); 400 ppm in experiment [3] (Table 2); greater than 400 ppm in experiment [4] (Table 2, E. coli(JCM1649)); 200 ppm in [8]. For the same compound, the minimum inhibitory concentration is reported as greater than 400 ppm in experiment [5], greater than 400 ppm in experiment [6] and 50 ppm in experiment [9].
As for `CCCCCCCCCCCC(=O)OCC(O)COCC(O)CO` (stereo not drawn) [diglycerin lauric acid monoester], the minimum inhibitory concentration in experiment [7] is recorded as 100 ppm; in experiment [1], 50 ppm; in experiment [2] (Table 2), 50 ppm; in experiment [3] (Table 2) it was 200 ppm; in [4] (Table 2, E. coli(JCM1649)), greater than 400 ppm; in [8], 200 ppm. In addition, the minimum inhibitory concentration in [5] and in experiment [6] was 100 ppm each time.
